Test results published in US11337984B2, “Methods for treating, diagnosing and prognosing a haematological malignancy” (Institut de Recerca Contra La Leucèmia Josep Carreras, priority 2014, dated 2022).

System: HL-60, KG-1, MonoMac-1 and Kasumi-1 AML cell lines
Assay: Cell viability of AML cell lines by flow cytometry (7-AAD/Hoechst, volumetric count)
Format: cell-based, human
Conditions: subtype-specific 5HTR antagonists, 0.1, 1 and 10 μM, 72 h
Protocol: FIG. 1. […] 10^6 HL-60, KG-1, MonoMac-1 and Kasumi-1 cells per mL in complete RPMI media were treated with 0.1, 1 and 10 μM Apomorphine for 72 h. […] Cells were stained with 7-aminoactinomycin D (7-AAD, CAS no. 7240-37-1) and Hoechst 33342 (CAS no. 23491-52-3) and analyzed by flow cytometry. […] Cell number was calculated by volumetric count. A. The mean (symbol) for each AML cell line and standard deviation (error bars) from 6 different biological replicates are represented. B. The average corresponding to the four different AML cell lines is represented. *p<0.05.
FIG. 2. […] Cell number was calculated by volumetric count. A. The mean (symbol) for each AML cell line and standard deviation (error bars) from 6 different biological replicates are represented. B. AML cell lines were treated with 10 μM Apomorphine or Methiothepin in the presence or absence of 5-CT or 5-HT. *p<0.05. Apo: apomorphine; Methio: methiothepine.
In order to test the anti-leukaemic effect of 5HTR antagonists, HL-60 (Collins, Gallo et al. Nature. 1977; 270(5635):347-9), MonoMac-1 (Steube, Teepe et al. Leuk Res. 1997; 21(4):327-35), KG-1 (Koeffler and Golde. Science. 1978; 200(4346):1153-4) and Kasumi-1 (Asou, Tashiro et al. Blood. 1991; 77(9):2031-6) AML (Acute Myeloid Leukaemia) cell lines were treated with the broad 5HTR antagonist Apomorphine (CAS no. 314-19-2) at different doses for 72 h. One million cells per mL were seeded in complete RPMI media supplemented with 10% fetal bovine serum in a 96-well plate. The concentration used for the Apomorphine treatment was 0.1, 1 and 10 μM.
The human 5HTR family is composed by 7 subtypes (from 1 to 7) of receptors […]. HL-60, KG-1, MonoMac-1 and Kasumi-1 AML cell lines were incubated with subtype-specific 5HTR antagonists: Apomorphine (type 1, 2 and 5), Methiothepin (type 1 and 2) (CAS no. 74611-28-2), Amperozide (type 2) (CAS no. 75558-90-6), GR113808 (type 4) (CAS no. 144625-51-4). 72 h after treatment, cell viability was determined by flow cytometry. Cells were stained with 7-AAD (CAS no. 7240-37-1) and Hoechst 33342 (CAS no. 23491-52-3). Viability cells were identified by 7-AAD staining exclusion and the presence of Hoechst positive stain. Cell counts were measured by volume. […] In fact, the anti-leukaemic effect was reversed in the presence of a competitive agonist such as the natural ligand 5-HT (CAS no. 153-98-0) or 5-CT (CAS no. 74885-72-6).

| Structure (SMILES) | cell death on AML cell lines |
| --- | --- |
| CCNC(=O)N1CCN(CCCC(c2ccc(F)cc2)c2ccc(F)cc2)CC1 [Amperozide, 4-[4,4-bis(4-fluorophenyl)butyl]-N-ethylpiperazine-1-carboxamide] | induced cell death |
| Cn1cc(C(=O)OCC2CCN(CCNS(C)(=O)=O)CC2)c2ccccc21 [GR113808] | Only Apomorphine, Methiothepin and Amperozide induced cell death |
